The values that follow come from ChEMBL document CHEMBL4765281, “Development of a novel nitric oxide (NO) production inhibitor with potential therapeutic effect on chronic inflammation” (Eur J Med Chem, 2020).

Experiment [1] has as its system RAW264.7. As to the kind of experiment: Inhibition of LPS-induced nitric oxide production in mouse RAW264.7 cells. It is filed as functional, cell-based.
The subject of experiment [2] is RAW264.7. As to the kind of experiment: Inhibition of LPS-induced nitric oxide production in mouse RAW264.7 cells at 10 uM measured after 24 hrs by Griess reagent based assay relative to control. It counts as functional.
The test system of experiment [3] is RAW264.7. As to the kind of experiment: Cytotoxicity against mouse RAW264.7 cells assessed as reduction in cell viability measured after 24 hrs by MTT assay. It is filed as cell-based. Particulars: RAW264.7, 24 h.
The subject of experiment [4] is RAW264.7. Briefly: Inhibition of LPS-induced nitric oxide production in mouse RAW264.7 cells measured after 24 hrs by Griess reagent based assay. It is filed as functional, cell-based. The conditions noted are these: RAW264.7, 24 h.

In the case of `COc1ccccc1C(=O)/C=C/c1ccc(Cl)c(Cl)c1`, the concentration for half-maximal inhibition (IC50) in the experiment on RAW264.7 [1] stood at 7.1 µM.

Turning to `COc1cc(O)c(C(=O)/C=C/c2cc(OC)c(OC)c([N+](=O)[O-])c2)c(OC)c1`, in the experiment with RAW264.7 [2], the inhibition at 10 µM is 30.8%.

`COc1cc(O)c(C(=O)/C(F)=C/c2ccc(O)cc2)c(OC)c1` had an inhibition at 10 µM in the experiment with RAW264.7 [2] of 70%.

In the experiment with RAW264.7 [2], `COc1ccc(/C=C(\F)C(=O)c2c(O)cc(OC)cc2OC)cc1` returned an inhibition at 10 µM of 50.3%.

For `CC1(C)C=Cc2cc(/C=C/C(=O)c3ccc(O)cc3O)ccc2O1`, the IC50 in the experiment with RAW264.7 [1] worked out at 2.2 µM.

In the case of `COc1cc(O)c(C(=O)/C(F)=C/c2ccc(OC)c(OC)c2)c(OC)c1`, in the experiment with RAW264.7 [2], 10 µM produced 62.6% inhibition.

`COc1cc(/C=C/C(=O)c2ccc(F)cc2)cc(OC)c1OC` came in with an IC50 in the experiment with RAW264.7 [1] of 0.033 µM.

For `COc1cc(O)c(C(=O)/C=C/c2cc(OC)c(OC)cc2OC)c(OC)c1`, 10 µM produced 78.4% inhibition with RAW264.7 [2].

`COc1ccc(/C=C/C(=O)c2ccc(OC)cc2O)cc1`: the inhibition at 10 µM in the experiment with RAW264.7 [2] turned out to be 70%.

`COc1cc(O)c(C(=O)/C=C/c2ccc(C)cc2)c(OC)c1` displayed an inhibition at 10 µM with RAW264.7 [2] of 82.1%. Besides, the concentration for half-maximal inhibition (IC50) was more than 40 µM in the experiment with RAW264.7 [3] and 6.3 µM with RAW264.7 [4].

`COc1cccc(CCC(=O)c2c(O)cc(OC)cc2OC)c1` gave an inhibition at 10 µM with RAW264.7 [2] of 52.2%.

On to `O=c1cc(-c2ccc(O)c(O)c2)oc2cc(O)cc(O)c12` [LUTEOLIN], for which the inhibition at 10 µM in the experiment with RAW264.7 [2] was 54.6%. Further, the figures for the IC50 with RAW264.7 [3] and in the experiment on RAW264.7 [4] were more than 40 µM and 9.2 µM, respectively.

Turning to `COc1cc(O)c(C(=O)/C(C)=C/c2ccc(C)cc2)c(OC)c1`, in the experiment with RAW264.7 [2], at 10 µM the inhibition was 56.8%.

With `COc1cc(O)c(C(=O)/C=C/c2ccc(OC)c(Br)c2)c(OC)c1`, the inhibition at 10 µM with RAW264.7 [2] amounted to 73.8%.

`COc1cccc(O)c1C(=O)/C=C/c1cccc(Br)c1`: in the experiment with RAW264.7 [1], the IC50 is 7.8 µM.

The molecule `COc1cc(O)c(C(=O)/C=C/c2ccc(OC)c(OC)c2)c(OC)c1` registered an inhibition at 10 µM in the experiment with RAW264.7 [2] of 78.7%.

As for `COc1ccc(OC)c(/C=C/C(=O)c2c(O)cc(OC)cc2OC)c1`, at 10 µM the inhibition in the experiment with RAW264.7 [2] was 73.7%.

The molecule `COc1cc(O)c(C(=O)/C=C/c2ccc(Br)cc2)c(OC)c1` showed an inhibition at 10 µM in the experiment on RAW264.7 [2] of 70.2%.

As for `COc1ccc(/C=C/C(=O)c2c(O)cc(OC)cc2OC)c(OC)c1`, the inhibition at 10 µM in the experiment with RAW264.7 [2] turned out to be 67.6%.

In the experiment with RAW264.7 [2], `COc1cc(O)c(C(=O)/C=C/c2ccc(OCCCO)cc2)c(OC)c1` had an inhibition at 10 µM of 78.2%.

For the molecule `COc1cc(O)c(C(=O)/C=C/c2ccccc2)c(OC)c1` [FLAVOKAWAIN B], at 10 µM the inhibition in the experiment on RAW264.7 [2] was 80.6%. In addition, the IC50 in the experiment with RAW264.7 [3] turned out to be 26.5 µM; with RAW264.7 [4] it was 4.2 µM.

`COc1cc(O)c(C(=O)/C=C/c2ccc3c(c2)OCO3)c(OC)c1`: at 10 µM the inhibition with RAW264.7 [2] was 70%.

`COc1cccc(/C=C/C(=O)c2ccc(OC)cc2O)c1` showed an inhibition at 10 µM in the experiment on RAW264.7 [2] of 82.5%. Besides, the IC50 was determined as 29.7 µM in the experiment on RAW264.7 [3] and 3.2 µM in the experiment on RAW264.7 [4].

On to `COc1cc(O)c(C(=O)/C=C/c2ccc(OC)c(O)c2)c(OC)c1`, for which the inhibition at 10 µM in the experiment with RAW264.7 [2] was found to be 70.6%.

`O=C(/C=C/c1ccccc1O)c1ccsc1`: the IC50 in the experiment with RAW264.7 [1] was determined as 5.75 µM.

In the experiment with RAW264.7 [2], `COc1cc(O)c(C(=O)/C(C)=C/c2ccccc2)c(OC)c1` gave an inhibition at 10 µM of 57.5%.

The molecule `COc1cccc(O)c1C(=O)/C=C/c1ccccc1` gave an IC50 with RAW264.7 [1] of 9.6 µM.

Regarding `COc1ccc(OC)c(C(=O)/C=C/c2ccc(N(C)C)cc2)c1`, the midpoint of inhibition in the experiment with RAW264.7 [1], the IC50, lay at 0.7 µM.

In the experiment on RAW264.7 [2], `COc1ccc(/C=C/C(=O)c2c(O)cc(OC)cc2OC)cc1` [FLAVOKAWAIN A] displayed an inhibition at 10 µM of 79.5%.

As to `COc1cc(O)c(C(=O)/C(F)=C/c2ccc(C)cc2)c(OC)c1`, in the experiment on RAW264.7 [2], the inhibition at 10 µM was determined as 50.8%.

The molecule `COc1cccc(OC)c1C(=O)/C=C/c1ccc(N(C)C)cc1` gave an IC50 with RAW264.7 [1] of 0.6 µM.

In the experiment with RAW264.7 [2], `COc1cccc(/C=C(\F)C(=O)c2c(O)cc(OC)cc2OC)c1` yielded an inhibition at 10 µM of 58.1%.

In turn, `COc1cc(O)c(C(=O)/C(F)=C/c2ccccc2)c(OC)c1` returned an inhibition at 10 µM in the experiment on RAW264.7 [2] of 47.4%.

`COc1cccc(/C=C/C(=N\O)c2c(O)cc(OC)cc2OC)c1` yielded an inhibition at 10 µM with RAW264.7 [2] of 46.4%.

In the experiment with RAW264.7 [1], `CC1(C)C=Cc2cc(C(=O)/C=C/c3ccc(O)cc3)c(O)cc2O1` [4-HYDROXYISOLONCHOCARPIN] returned an IC50 of 2.4 µM.

In the experiment on RAW264.7 [2], `COc1cc(O)c(C(=O)/C=C/c2ccc(OCCCN3CCN(C)CC3)c(OC)c2)c(OC)c1` came in with an inhibition at 10 µM of 70.4%.

`CC(C)=CCc1cc(C(=O)/C=C/c2ccc(O)c(O)c2)c(O)cc1O` [BROUSSOCHALCONE A] registered an IC50 with RAW264.7 [1] of 11.3 µM.

With `COc1cccc(/C=C(\C)C(=O)c2c(O)cc(OC)cc2OC)c1`, the inhibition at 10 µM in the experiment on RAW264.7 [2] was found to be 68.3%.

In the experiment on RAW264.7 [2], `COc1cccc(/C=C/C(=O)c2c(O)cc(OC)cc2OC)c1` displayed an inhibition at 10 µM of 86.9%. In addition, the IC50 came to 34 µM with RAW264.7 [3] and 2.4 µM with RAW264.7 [4].

On to `COc1cccc(C2CC(=O)c3c(OC)cc(OC)cc3O2)c1` (configuration not stated), for which the inhibition at 10 µM with RAW264.7 [2] is 57.3%.

In the experiment on RAW264.7 [1], `CC(C)=CCc1c(O)ccc(C(=O)/C=C/c2ccc(O)cc2)c1O` [ISOBAVACHALCONE] registered an IC50 of 1.6 µM.

Turning to `COc1cc(O)c(C(=O)/C=C/c2ccc(OCCO)cc2)c(OC)c1`, the inhibition at 10 µM in the experiment with RAW264.7 [2] was found to be 73.6%.

On to `COc1cc(O)c(C(=O)/C=C/c2ccc([N+](=O)[O-])cc2)c(OC)c1`, for which, in the experiment on RAW264.7 [2], at 10 µM the inhibition was 35.4%.

The molecule `COc1cc(O)c(C(=O)/C=C/c2cc(OC)c(OC)c(OC)c2)c(OC)c1` showed an inhibition at 10 µM in the experiment with RAW264.7 [2] of 77.4%.

`COc1ccc(/C=C(\C)C(=O)c2c(O)cc(OC)cc2OC)cc1`: 10 µM produced 41.6% inhibition with RAW264.7 [2].

For the molecule `CCOc1cc(OC)cc(OC)c1C(=O)/C=C/c1cccc(OC)c1`, in the experiment with RAW264.7 [2], testing at 10 µM gave an inhibition of 85.6%. In addition, the IC50 came to 34 µM in the experiment on RAW264.7 [3] and 2.7 µM in the experiment on RAW264.7 [4].

`COc1cc(O)c(C(=O)/C=C/c2cccnc2)c(OC)c1` gave an inhibition at 10 µM in the experiment on RAW264.7 [2] of 78%.

Regarding `COc1cc(O)c(C(=O)/C=C/c2ccc(OCCCN3CCCCC3)c(OC)c2)c(OC)c1`, the inhibition at 10 µM in the experiment with RAW264.7 [2] turned out to be 74.8%.

For `COc1cc(C(=O)/C=C/c2cc(OC)c(OC)c(OC)c2)ccc1O`, the IC50 in the experiment with RAW264.7 [1] is 4.19 µM.

Regarding `COc1cccc(/C=C/C(=O)c2c(OC)cc(OC)cc2OC(C)=O)c1`, the inhibition at 10 µM with RAW264.7 [2] came out at 84.6%. In addition, the IC50 in the experiment on RAW264.7 [3] was 30.7 µM; with RAW264.7 [4], 3.6 µM.

For the molecule `COc1cc(O)c(C(=O)/C=C/c2ccc(O)cc2)c(OC)c1` [FLAVOKAWAIN C], in the experiment on RAW264.7 [2], the inhibition at 10 µM came to 66.8%.

`COc1ccc(/C=C/C(=O)c2ccccc2O)cc1`: the inhibition at 10 µM with RAW264.7 [2] was 76.7%.

In the case of `CC1(C)C=Cc2c(ccc(C(=O)/C=C/c3ccc(O)cc3)c2O)O1`, the IC50 with RAW264.7 [1] is 10.2 µM.

Take `COc1ccc(OC)c(/C=C(\F)C(=O)c2c(O)cc(OC)cc2OC)c1`: the inhibition at 10 µM in the experiment on RAW264.7 [2] was 42.6%.

Molecule `COc1cccc(C(=O)/C=C/c2cc(OC)c(OC)c(OC)c2)c1` gave a 50% inhibitory concentration (IC50) with RAW264.7 [1] of 2.88 µM.

In the experiment on RAW264.7 [2], `COc1cc(O)c(C(=O)/C=C/c2ccc(OCCCN3CCCC3)c(OC)c2)c(OC)c1` registered an inhibition at 10 µM of 83.1%. Moreover, the IC50 was more than 40 µM with RAW264.7 [3] and 6.5 µM in the experiment on RAW264.7 [4].
